Data: patent EP0248972A2, “Ammoniummonofluorophosphates, process for their preparation and their use” (Benckiser-Knapsack GmbH, priority 1986, dated 1987)

Assay: Behaviour with water (emulsion formation)
Format: physicochemical
Details: mit Wasser bei 20 C

Compound: CCCCCCCC/C=C\CCCCCCCCNCCCN [N-Oleyl-1,3-diammoniumpropanmonofluorophosphat]
- Verhalten mit Wasser: stabile Emulsion
